In patent publication US8134015B2, “Compound inhibiting in vivo phosphorous transport and medicine containing the same” (Kyowa Hakko Kirin Co., Ltd., priority 2003, dated 2012):

Biological target: T1, rat NaPi-2b (Rattus norvegicus, UniProt Q9JJ09)
T1 construct: expressed in transfected cells; host or cells: Xenopus oocytes injected with cRNA
T1 sequence (Q9JJ09 1-695): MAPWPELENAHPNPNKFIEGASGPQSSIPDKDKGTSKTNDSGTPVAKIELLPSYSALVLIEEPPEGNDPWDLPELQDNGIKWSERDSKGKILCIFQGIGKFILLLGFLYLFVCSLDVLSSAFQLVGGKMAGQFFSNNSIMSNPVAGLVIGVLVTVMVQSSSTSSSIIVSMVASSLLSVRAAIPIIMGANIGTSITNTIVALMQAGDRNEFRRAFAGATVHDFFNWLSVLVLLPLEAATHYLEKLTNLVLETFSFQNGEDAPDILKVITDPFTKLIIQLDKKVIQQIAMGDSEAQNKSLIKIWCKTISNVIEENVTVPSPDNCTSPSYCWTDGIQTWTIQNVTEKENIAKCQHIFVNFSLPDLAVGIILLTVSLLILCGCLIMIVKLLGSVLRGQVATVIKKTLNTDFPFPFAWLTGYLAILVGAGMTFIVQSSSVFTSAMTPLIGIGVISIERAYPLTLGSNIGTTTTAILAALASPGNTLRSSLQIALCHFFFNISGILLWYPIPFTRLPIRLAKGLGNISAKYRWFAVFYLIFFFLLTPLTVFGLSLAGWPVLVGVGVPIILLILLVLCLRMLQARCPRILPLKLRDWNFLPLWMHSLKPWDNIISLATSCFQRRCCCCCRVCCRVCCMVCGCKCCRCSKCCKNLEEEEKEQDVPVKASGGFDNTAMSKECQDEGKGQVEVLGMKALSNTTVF
Assay: Sodium-dependent phosphate uptake of Xenopus oocytes which expressed NaPi-2b (32P)
Type: cell-based
Conditions: Xenopus oocytes expressing rat NaPi-2b, 32P radioactive phosphorus; read-out: IC50 (phosphate uptake inhibitory activity)
Method in brief: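 Inhibition at 300 μM and 100 μM was read off one inhibition curve of 32P phosphate uptake. Uptake was measured in Xenopus oocytes cultured 2 days after injection of cRNA for cloned rat NaPi-2b.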

| SMILES | IC50 [nM] |
| --- | --- |
| O=C(Nc1ccc(N2CCCCC2)cc1C(=O)N/N=C/c1ccc(F)cc1)c1cccc(CN2CCC(O)CC2)c1 [Compound 872, N-[2-(4-Fluoro-benzylidene-hydrazinocarbonyl)-4-piperidin-1-yl-phenyl]-3-(4-hydroxy-piperidin-1-ylmethyl)-benzamide] | < 3000 |
| O=C(Nc1ccc(N2CCCCC2)cc1C(=O)N/N=C/c1cccc(F)c1)c1cccc(CN2CCC(O)CC2)c1 [Compound 873, N-[2-(3-Fluoro-benzylidene-hydrazinocarbonyl)-4-piperidin-1-yl-phenyl]-3-(4-hydroxy-piperidin-1-ylmethyl)-benzamide] | 660 |
| COc1ccc(/C=N/NC(=O)c2cc(N3CCCCC3)ccc2NC(=O)c2cccc(CSCCO)c2)cc1 [Compound 885, 3-(2-Hydroxy-ethylsulfanylmethyl)-N-[2-(4-methoxy-benzylidene-hydrazinocarbonyl)-4-piperidin-1-yl-phenyl]-benzamide] | 1240 |
| O=C(O)CCSCc1cccc(C(=O)Nc2ccc(N3CCCCC3)cc2C(=O)N/N=C/c2ccc(F)cc2)c1 [Compound 888, 3-{3-[2-(4-Fluoro-benzylidene-hydrazinocarbonyl)-4-piperidin-1-yl-phenylcarbamoyl]-benzylsulfanyl}-propionic acid] | 2550 |
| COc1ccc(/C=N/NC(=O)c2cc(N3CCCCC3)ccc2NC(=O)c2cccc(CSCC(=O)O)c2)cc1 [Compound 892, {3-[2-(4-Methoxy-benzylidene-hydrazinocarbonyl)-4-piperidin-1-yl-phenylcarbamoyl]-benzylsulfanyl}-acetic acid] | 14800 |
| O=C(Nc1ccc(N2CCCCC2)cc1C(=O)N/N=C/c1ccc(Cl)c(C(F)(F)F)c1)c1cccc(CN2CCc3nc4ncccc4cc3C2)c1 [Compound 897, N-[2-(4-Chloro-3-trifluoromethyl-benzylidene-hydrazinocarbonyl)-4-piperidin-1-yl-phenyl]-3-(7,8-dihydro-5H-1,6,9-triaza-anthracen-6-ylmethyl)-benzamide] | < 300 |
| CCN(CC)CCN(CCN(CC)CC)Cc1cccc(C(=O)Nc2ccc(N3CCCCC3)cc2C(=O)N/N=C/c2ccc(C)c(C)c2)c1 [Compound 905, 3-{[Bis-(2-diethylamino-ethyl)-amino]-methyl}-N-[2-(3,4-dimethyl-benzylidene-hydrazinocarbonyl)-4-piperidin-1-yl-phenyl]-benzamide] | 1180 |
| CCN(CC)CCN(CCN(CC)CC)Cc1cccc(C(=O)Nc2ccc(N3CCCCC3)cc2C(=O)N/N=C/c2ccc(C)cc2)c1 [Compound 906, 3-{[Bis-(2-diethylamino-ethyl)-amino]-methyl}-N-[2-(4-methyl-benzylidene-hydrazinocarbonyl)-4-piperidin-1-yl-phenyl]-benzamide] | 1830 |
| CCN(CC)CCN(CCN(CC)CC)Cc1cccc(C(=O)Nc2ccc(N3CCCCC3)cc2C(=O)N/N=C/c2ccc(Cl)c(C(F)(F)F)c2)c1 [Compound 909, 3-{[Bis-(2-diethylamino-ethyl)-amino]-methyl}-N-[2-(4-chloro-3-trifluoromethyl-benzylidene-hydrazinocarbonyl)-4-piperidin-1-yl-phenyl]-benzamide] | 1020 |
| CCCN(CCC)c1ccc(NC(=O)c2cccc(CN(C)CCN(CC)CC)c2)c(C(=O)N/N=C/c2ccc(OC)cc2)c1 [Compound 912, 3-{[(2-Diethylamino-ethyl)-methyl-amino]-methyl}-N-[4-dipropylamino-2-(4-methoxy-benzylidene-hydrazinocarbonyl)-phenyl]-benzamide] | 1040 |
| Cc1ccc(/C=N/NC(=O)c2cc(N3CCCCC3)ccc2NC(=O)c2cccc(CNCCN(CCO)CCO)c2)cc1C [Compound 913, 3-({2-[Bis-(2-hydroxy-ethyl)-amino]-ethylamino}-methyl)-N-[2-(3,4-dimethyl-benzylidene-hydrazinocarbonyl)-4-piperidin-1-yl-phenyl]-benzamide] | 1650 |
| CCN(CC)CCN(C)Cc1cccc(C(=O)Nc2ccc(N3CCCC3)cc2C(=O)N/N=C/c2ccc(C)c(C)c2)c1 [Compound 916, 3-{[(2-Diethylamino-ethyl)-methyl-amino]-methyl}-N-[2-(3,4-dimethyl-benzylidene-hydrazinocarbonyl)-4-pyrrolidin-1-yl-phenyl]-benzamide] | 5220 |
| CCN(CC)CCN(C)Cc1cccc(C(=O)Nc2ccc(N3CCCC3)cc2C(=O)N/N=C/c2ccc(OC)cc2)c1 [Compound 918, 3-{[(2-Diethylamino-ethyl)-methyl-amino]-methyl}-N-[2-(4-methoxy-benzylidene-hydrazinocarbonyl)-4-pyrrolidin-1-yl-phenyl]-benzamide] | 1550 |

The remaining lines, values ahead:

| IC50 [nM] | SMILES |
| --- | --- |
| < 300 | O=C(Nc1ccc(N2CCCCC2)cc1C(=O)N/N=C/c1ccc(Cl)c(C(F)(F)F)c1)c1cccc(CN2CCC(O)CC2)c1 [Compound 874, N-[2-(4-Chloro-3-trifluoromethyl-benzylidene-hydrazinocarbonyl)-4-piperidin-1-yl-phenyl]-3-(4-hydroxy-piperidin-1-ylmethyl)-benzamide] |
| 5200 | COc1ccc(/C=N/NC(=O)c2cc(N3CCCCC3)ccc2NC(=O)c2cccc(CN3CCC(O)CC3)c2)cc1 [Compound 875, 3-(4-Hydroxy-piperidin-1-ylmethyl)-N-[2-(4-methoxy-benzylidene-hydrazinocarbonyl)-4-piperidin-1-yl-phenyl]-benzamide] |
| < 3000 | CCN(CC)CCSCc1cccc(C(=O)Nc2ccc(N3CCCCC3)cc2C(=O)N/N=C/c2ccc(C)c(C)c2)c1 [Compound 876, 3-(2-Diethylamino-ethylsulfanylmethyl)-N-[2-(3,4-dimethyl-benzylidene-hydrazinocarbonyl)-4-piperidin-1-yl-phenyl]-benzamide] |
| < 300 | CCN(CC)CCSCc1cccc(C(=O)Nc2ccc(N3CCCCC3)cc2C(=O)N/N=C/c2ccc(F)cc2)c1 [Compound 877, 3-(2-Diethylamino-ethylsulfanylmethyl)-N-[2-(4-fluoro-benzylidene-hydrazinocarbonyl)-4-piperidin-1-yl-phenyl]-benzamide] |
| 3720 | CCN(CC)CCSCc1cccc(C(=O)Nc2ccc(N3CCCCC3)cc2C(=O)NN=Cc2ccc(OC)cc2)c1 [Compound 879, 3-(2-Diethylamino-ethylsulfanylmethyl)-N-[2-(4-methoxy-benzylidene-hydrazinocarbonyl)-4-piperidin-1-yl-phenyl]-benzamide] |
| < 300 | COc1ccc(/C=N/NC(=O)c2cc(N3CCCCC3)ccc2NC(=O)c2cccc(CN3CCc4nc5ncccc5cc4C3)c2)cc1 [Compound 898, 3-(7,8-Dihydro-5H-1,6,9-triaza-anthracen-6-ylmethyl)-N-[2-(4-methoxy-benzylidene-hydrazinocarbonyl)-4-piperidin-1-yl-phenyl]-benzamide] |
| 6750 | CCN(CC)CCN(CCN(CC)CC)Cc1cccc(C(=O)Nc2ccc(N3CCCCC3)cc2C(=O)N/N=C/c2ccc(F)cc2)c1 [Compound 907, 3-{[Bis-(2-diethylamino-ethyl)-amino]-methyl}-N-[2-(4-fluoro-benzylidene-hydrazinocarbonyl)-4-piperidin-1-yl-phenyl]-benzamide] |
| 13200 | CCN(CC)CCN(CCN(CC)CC)Cc1cccc(C(=O)Nc2ccc(N3CCCCC3)cc2C(=O)N/N=C/c2cccc(F)c2)c1 [Compound 908, 3-{[Bis-(2-diethylamino-ethyl)-amino]-methyl}-N-[2-(3-fluoro-benzylidene-hydrazinocarbonyl)-4-piperidin-1-yl-phenyl]-benzamide] |
| 7810 | CCN(CC)CCN(CCN(CC)CC)Cc1cccc(C(=O)Nc2ccc(N3CCCCC3)cc2C(=O)N/N=C/c2ccc(OC)cc2)c1 [Compound 910, 3-{[Bis-(2-diethylamino-ethyl)-amino]-methyl}-N-[2-(4-methoxy-benzylidene-hydrazinocarbonyl)-4-piperidin-1-yl-phenyl]-benzamide] |
| < 1000 | CCCN(CCC)c1ccc(NC(=O)c2cccc(CN(C)CCN(CC)CC)c2)c(C(=O)N/N=C/c2ccc(Cl)c(C(F)(F)F)c2)c1 [Compound 911, N-[2-(4-Chloro-3-trifluoromethyl-benzylidene-hydrazinocarbonyl)-4-dipropylamino-phenyl]-3-{[(2-diethylamino-ethyl)-methyl-amino]-methyl}-benzamide] |
| 8150 | COc1ccc(/C=N/NC(=O)c2cc(N3CCCCC3)ccc2NC(=O)c2cccc(CNCCN(CCO)CCO)c2)cc1 [Compound 915, 3-({2-[Bis-(2-hydroxy-ethyl)-amino]-ethylamino}-methyl)-N-[2-(4-methoxy-benzylidene-hydrazinocarbonyl)-4-piperidin-1-yl-phenyl]-benzamide] |
| 1250 | CCN(CC)CCN(C)Cc1cccc(C(=O)Nc2ccc(N3CCCC3)cc2C(=O)N/N=C/c2ccc(Cl)c(C(F)(F)F)c2)c1 [Compound 917, N-[2-(4-Chloro-3-trifluoromethyl-benzylidene-hydrazinocarbonyl)-4-pyrrolidin-1-yl-phenyl]-3-{[(2-diethylamino-ethyl)-methyl-amino]-methyl}-benzamide] |
